# According to paper PMC7910394, “Design of PSMA ligands with modifications at the inhibitor part: an approach to reduce the salivary gland uptake of radiolabeled PSMA inhibitors?” (EJNMMI Radiopharmacy and Chemistry, 2021):
# Key:
# PSMA = target: T1, PSMA (Homo sapiens, UniProt Q04609); assay: Competitive binding assay (IC50) on LNCaP cells with ([125I]I-BA)KuE as radioligand; conditions: ([125I]I-BA)KuE 0.2 nM, HBSS (1% BSA), 4 °C, 1 h
# T1 construct: host or cells: LNCaP human prostate cancer cells
# T1 sequence (Q04609 whole entry): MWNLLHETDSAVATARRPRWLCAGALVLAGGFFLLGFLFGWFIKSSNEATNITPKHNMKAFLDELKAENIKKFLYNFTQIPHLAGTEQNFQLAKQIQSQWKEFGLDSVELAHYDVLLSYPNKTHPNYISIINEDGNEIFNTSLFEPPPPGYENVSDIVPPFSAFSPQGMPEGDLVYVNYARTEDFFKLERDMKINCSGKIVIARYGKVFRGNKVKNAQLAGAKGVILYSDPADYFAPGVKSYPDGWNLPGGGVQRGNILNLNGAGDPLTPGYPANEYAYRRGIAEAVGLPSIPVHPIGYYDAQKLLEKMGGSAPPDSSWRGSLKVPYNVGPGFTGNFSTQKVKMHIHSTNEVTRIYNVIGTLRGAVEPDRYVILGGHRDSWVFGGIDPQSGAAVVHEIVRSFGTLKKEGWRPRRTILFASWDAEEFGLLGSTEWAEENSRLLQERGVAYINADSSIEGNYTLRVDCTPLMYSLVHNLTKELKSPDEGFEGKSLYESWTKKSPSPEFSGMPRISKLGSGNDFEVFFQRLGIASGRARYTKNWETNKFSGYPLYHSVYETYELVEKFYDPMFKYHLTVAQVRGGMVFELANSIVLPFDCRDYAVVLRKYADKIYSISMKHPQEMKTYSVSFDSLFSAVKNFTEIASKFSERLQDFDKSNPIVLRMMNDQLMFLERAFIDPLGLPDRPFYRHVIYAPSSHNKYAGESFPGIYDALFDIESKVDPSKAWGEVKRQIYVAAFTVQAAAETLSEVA
# Description: PSMA-positive LNCaP cells (300265; Cell Lines Service, Eppelheim, Germany) were cultivated in Dulbecco’s modified Eagle medium/Nutrition Mixture F-12 with GlutaMAX (1/1, DMEM-F12, Thermo Fisher Scientific, Darmstadt, Germany) supplemented with 10% fetal bovine serum (Merck KGaA, Darmstadt, Germany) and kept at 37 °C in a humidified 5% CO2 atmosphere. One day (24 ± 2 h) prior to all in vitro experiments, the cultivated LNCaP cells were harvested using a mixture of trypsin/ethylenediamine-tetraacetic acid (0.05%/0.02%) in PBS (Thermo Fisher Scientific, Darmstadt, Germany) and centrifuged at 1300 rpm (ca. 190×g) for 3 min at room temperature (Heraeus Megafuge 16, Thermo Fisher Scientific, Darmstadt, Germany). After centrifugation, the supernatant was disposed and the cell pellet was resuspended in culture medium. Cells were counted with a Neubauer hemocytometer (Paul Marienfeld GmbH & Co. KG, Lauda-Königshofen, Germany) and seeded in 24-well plates.
# Detailed information on affinity and internalization experiments is provided in the supporting information. […] IC50 values of (^natI-BA)KuE were determined on the same day for monitoring assay performance and to identify abnormal deviations in uptake and/or affinity. […] Data were corrected for non-specific binding and normalized to the specific internalization observed for the radioiodinated reference compound (n = 3).
# The culture medium was removed and the cells were washed with 500 µL of Hank’s balanced salt solution (HBSS) (Merck KGaA, Darmstadt, Germany), containing 1% bovine serum albumin (BSA) (Merck KGaA, Darmstadt, Germany). Afterwards, 200 µL of HBSS (1% BSA) were added to each well and equilibrated on ice (4 °C) for 15 min. […] Experiments were carried out in triplicates for each concentration. The final concentrations of unlabeled ligand ranged from 10^-11 - 10^-5 M and the final radioligand concentration was 0.2 nM in all binding assays. The cells were incubated for one hour at 4 °C. Incubation was terminated by removal of the incubation medium. The cells were washed with 250 µL of HBSS (1% BSA) and the wash medium was combined with the respective supernatant. This fraction represents the amount of free radioligand. The cells were lysed by addition of 250 µL of 1 M aqueous NaOH. The lysate of each well was transferred to the respective vial as well as 250 µL of 1 M NaOH used for rinsing the well. Quantification of the amount of free and bound activity was performed in a γ-counter. The corresponding IC50 values were calculated using the GraphPad PRISM7 software.
# [1] = tested on: LNCaP tumor xenograft-bearing CB17-SCID mouse; format: in vivo; conditions: 1 h p.i.
# Description: Detailed information on organ preparation and extraction procedures is provided in the supporting information. In brief, [^177Lu]Lu-11 (9.64 MBq) was injected into the tail vein of a LNCaP tumor xenograft-bearing CB17-SCID mouse. The animal was sacrificed 1 h p.i. and subjected to the standard procedure for biodistribution studies. In addition, urine was taken from all mice that were investigated in this experiment (8.4–9.0 MBq injected activity) and pooled (n = 5). Liver, tumor and kidneys were homogenized with a MM-400 ball mill (Retsch GmbH, Haan, Germany) at 30 Hz for 20 min and extracted with 1 mL radioimmunoprecipitation assay (RIPA) buffer containing 2 μmol of 2-(phosphonomethyl)pentane-1,5-dioic acid (2-PMPA). The suspension was centrifuged (15,200 rpm, 10 min, 21 °C) and the supernatants were loaded onto a preconditioned Strata-X cartridge (200 mg). Elution of the activity was conducted by 750 μL of MeCN/H2O (6/4, 0.1% TFA) and the extracts were analyzed via radio-RP-HPLC. Prior to solid phase extraction, blood samples were centrifuged twice (13,000 rpm, 5 min) to separate the plasma from the blood cells. Urine samples were also centrifuged (13,000 rpm, 5 min) and the supernatant was directly analyzed via radio-RP-HPLC.
# Besides biodistribution and μSPECT/CT studies, [^177Lu]Lu-11 (tetrazole) was analyzed according to its metabolic stability 1 h p.i. Relevant dissected organs (tumor, kidney, liver) and body fluids (blood and urine) were collected, homogenized if necessary and subjected to extraction of the incorporated activity. […] The respective radio-RP-HPLC analyses of extracts from homogenized organs and body fluids are depicted in Figure 1 in the supporting information.
# [^177Lu]Lu-11 (9.64 MBq) was injected into the tail vein of a LNCaP tumor xenograft-bearing CB17-SCID mouse. The animal was sacrificed 1 h p.i. and subjected to the standard procedure for biodistribution studies. In addition, urine was taken from all mice that were investigated in this experiment (8.4 - 9.0 MBq) and pooled (n = 5). Relevant dissected organs (tumor, kidneys, liver) and body fluids (blood and urine) were collected, homogenized if necessary and subjected to mechanochemical as well as solid phase extraction (SPE).
# Four 2 mL LoBind tubes were equipped with steel and ceramic beads from Lysis Tubes W (analytikjena, Jena, Germany) for kidneys, tumor and liver (bisected). 1 mL radioimmunoprecipitation assay (RIPA) buffer containing 2.0 µmol of 2-PMPA was added to each tube and the organs were homogenized with a MM-400 ball mill (Retsch GmbH, Haan, Germany) at 30 Hz for 20 min. Afterwards, the homogenates were transferred to LoBind tubes free from steel and ceramic beads and centrifuged (15,200 rpm, 10 min, 21 °C). The first supernatants were stored, and the precipitates were again subjected to mechanochemical extraction with 1 mL RIPA buffer (2.0 µmol PMPA) at 30 Hz for 20 min. After centrifugation (15,200 rpm, 10 min, 21 °C), also the second supernatants were kept for SPE.
# After cardiac puncture, 1 mL Tracepur®-H2O was directly added to the collected blood sample and centrifuged twice (13,000 rpm, 5 min) to separate the plasma from the blood cells. The precipitate was dissolved in 500 µL Tracepur®-H2O and together with the first supernatant again centrifuged (13,000 rpm, 5 min). Both supernatants were kept for SPE.
# Pooled urine samples were centrifuged (13,000 rpm, 5 min) and the supernatant was directly analyzed via radio-RP-HPLC.
structure (smiles),measurement,setting,value
CC(C)(C)[Si](F)(c1ccc(C(=O)NC[C@@H](NC(=O)CN2CCN(CC(=O)[O-])CCN(CC(=O)[O-])CCN(CC(=O)[O-])CC2)C(=O)N[C@H](CCCCNC(=O)CCC(=O)NCCC[C@@H](NC(=O)CC[C@H](NC(=O)N[C@@H](CCc2nnn[nH]2)C(=O)O)C(=O)O)C(=O)O)C(=O)O)cc1)C(C)(C)C.[Lu+3] [^natLu/[^177Lu]Lu-11],IC50,PSMA,16.4 ± 3.8 nM
same,metabolite with higher hydrophilicity found in the urine,[1]; pooled urine (n = 5),18.7%
same,metabolite with higher hydrophilicity detected in blood,[1]; radio-RP-HPLC of extract,8.5%
same,metabolite with higher hydrophilicity detected in kidney,[1]; radio-RP-HPLC of extract,11.7%
same,metabolite with higher hydrophilicity detected in tumor,[1]; radio-RP-HPLC of extract,7.1%
same,metabolite with higher hydrophilicity in the liver homogenate,[1]; radio-RP-HPLC of extract,not detectable
same,more lipophilic metabolite (tR = 20.5 min) in the liver homogenate,[1]; radio-RP-HPLC of extract,28.0%
